Reference: US10538555B2, “Macrocyclic inhibitors of the PD-1/PD-L1 and CD80(B7-1)/PD-L1 protein/protein interactions” (BRISTOL-MYERS SQUIBB COMPANY, priority 2014, dated 2020)
Where two headings read alike, the source gives them in different places. Where a SMILES comes first, the peptide text is derived from it. Bridges are numbered along the chain shown (N, C = ends). [ ]: non-standard residue; d: D form. ξ: configuration not given here. Trp(1-CH2COOH) = N[C@@H](Cc1cn(CC(=O)O)c2ccccc12)C(=O)O; Phe(3,4,5-F3) = N[C@@H](Cc1cc(F)c(F)c(F)c1)C(=O)O; Phe(4-F) = N[C@@H](Cc1ccc(F)cc1)C(=O)O; d(cisHyp) = O=C(O)[C@H]1C[C@@H](O)CN1; Bta = N[C@@H](Cc1csc2ccccc12)C(=O)O; Hyp = O=C(O)[C@@H]1C[C@@H](O)CN1; NMeF = CN[C@@H](Cc1ccccc1)C(=O)O; dHyp = O=C(O)[C@H]1C[C@H](O)CN1; NMeNle = CCCC[C@H](NC)C(=O)O; NMeV = CN[C@H](C(=O)O)C(C)C; dPip = O=C(O)[C@H]1CCCCN1; hSer = N[C@@H](CCO)C(=O)O; NMeA = CN[C@@H](C)C(=O)O; Orn = NCCC[C@H](N)C(=O)O; Dab = NCC[C@H](N)C(=O)O; Dap = NC[C@H](N)C(=O)O; ξC = NC(CS)C(=O)O; Sar = CNCC(=O)O

Target: T1, Human PD-L1/PD-1 (Homo sapiens, UniProt Q9NZQ7)
T1 construct: TVMV protease cleavage site (C); made in house; host or cells: HEK293T cells
Assay: HTRF Human PD-L1/PD-1 binding assay (PD-1-Ig/PD-L1-His)
Details: PD-L1-His 10 nM, PD-1-Ig 20 nM
Summary of the method: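 Soluble HEK293T-expressed proteins: hPD-L1-His 10 nM, hPD-1-Ig 20 nM final. Cpd + PD-L1 15 min, + PD-1 15 min, + Eu anti-Ig 1 nM/APC anti-His 20 nM 30 min. Buffer dPBS, 0.1% BSA, 0.05% Tween-20. TR-FRET 665/620.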

[1] = class symbol, read-out: HTRF Human PD-L1/PD-1 Binding Assay IC50 Range

T1 sequence (Q9NZQ7 with tags, fused parts or gaps): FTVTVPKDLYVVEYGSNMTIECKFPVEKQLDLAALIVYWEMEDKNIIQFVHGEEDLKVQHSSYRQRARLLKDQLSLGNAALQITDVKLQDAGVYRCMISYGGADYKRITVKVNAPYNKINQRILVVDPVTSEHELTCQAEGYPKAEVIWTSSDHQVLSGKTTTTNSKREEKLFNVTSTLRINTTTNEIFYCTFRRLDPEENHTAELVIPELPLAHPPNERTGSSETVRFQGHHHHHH

| Compound | IC50 (read-out: HTRF Human PD-L1/PD-1 Binding Assay IC50) | IC50 [1] |
| --- | --- | --- |
| CCCC[C@H]1C(=O)N(C)[C@@H](CCCC)C(=O)N[C@@H](CC(C)C)C(=O)N[C@H](C(=O)NCC(N)=O)CSCC(=O)N[C@@H](Cc2ccc(O)cc2)C(=O)N(C)[C@@H](C)C(=O)N[C@@H](CC(N)=O)C(=O)N2CCC[C@H]2C(=O)N(C)CC(=O)N[C@@H](CCC(N)=O)C(=O)N2C[C@H](O)C[C@H]2C(=O)N[C@@H](Cc2c[nH]c3ccccc23)C(=O)N[C@@H](CO)C(=O)N[C@@H](Cc2c[nH]c3ccccc23)C(=O)N1C [Example 5262] ({CH2CO}-Y[NMeA]NP[Sar]Q[Hyp]WSW[NMeNle][NMeNle]LCG-NH2; thioether N-14) | 101 nM |  |
| CCCC[C@H]1C(=O)N(C)[C@@H](CCCC)C(=O)N[C@@H](CN)C(=O)N[C@H](C(=O)NCC(N)=O)CSCC(=O)N[C@@H](Cc2ccc(O)cc2)C(=O)N(C)[C@@H](C)C(=O)N[C@@H](CC(N)=O)C(=O)N2CCC[C@H]2C(=O)N[C@@H](CN)C(=O)N[C@@H](CCC(=O)O)C(=O)N2C[C@H](O)C[C@H]2C(=O)N[C@@H](Cc2c[nH]c3ccccc23)C(=O)N[C@@H](CCN)C(=O)N[C@@H](Cc2cn(CC(=O)O)c3ccccc23)C(=O)N1C [Example 6301] ({CH2CO}-Y[NMeA]NP[Dap]E[Hyp]W[Dab][Trp(1-CH2COOH)][NMeNle][NMeNle][Dap]CG-NH2; thioether N-14) |  | 1 to 9.9 nM |
| CCCC[C@H]1C(=O)N2C[C@@H](O)C[C@@H]2C(=O)N[C@@H](CC(=O)O)C(=O)N[C@@H](C(C)C)C(=O)N(C)[C@@H](Cc2ccccc2)C(=O)N[C@@H](CCC(=O)O)C(=O)N2CCCC[C@@H]2C(=O)N[C@@H](Cc2cn(CC(=O)O)c3ccccc23)C(=O)N[C@@H](Cc2ccc(O)cc2)C(=O)N[C@@H](CCN)C(=O)N[C@H](C(=O)NCC(N)=O)CSCC(=O)N[C@@H](Cc2cc(F)c(F)c(F)c2)C(=O)N(C)[C@@H](Cc2ccccc2)C(=O)N1C [Example 10585] ({CH2CO}-[Phe(3,4,5-F3)][NMeF][NMeNle][dHyp]DV[NMeF]E[dPip][Trp(1-CH2COOH)]Y[Dab]CG-NH2; thioether N-13) |  | 1 to 9.9 nM |
| CCCC[C@H]1C(=O)N2CCC[C@@H]2C(=O)N[C@@H](CC(=O)O)C(=O)N[C@@H](C(C)C)C(=O)N(C)[C@@H](Cc2ccccc2)C(=O)N[C@@H](Cc2ccc(O)cc2)C(=O)N2C[C@@H](O)C[C@@H]2C(=O)N[C@@H](Cc2c[nH]c3ccccc23)C(=O)N[C@@H](Cc2ccc(O)cc2)C(=O)N[C@@H](CC(C)C)C(=O)N[C@H](C(=O)NCC(N)=O)CSCC(=O)N[C@@H](Cc2cc(F)c(F)c(F)c2)C(=O)N(C)[C@@H](Cc2ccccc2)C(=O)N1C [Example 9287] ({CH2CO}-[Phe(3,4,5-F3)][NMeF][NMeNle][dP]DV[NMeF]Y[dHyp]WYLCG-NH2; thioether N-13) |  | 1 to 9.9 nM |
| CCCC[C@H]1C(=O)N2C[C@H](O)C[C@@H]2C(=O)N[C@@H](CC(=O)O)C(=O)N[C@@H](C(C)C)C(=O)N(C)[C@@H](Cc2ccccc2)C(=O)N[C@@H](CC(N)=O)C(=O)N2C[C@H](O)C[C@@H]2C(=O)N[C@@H](Cc2c[nH]c3ccccc23)C(=O)N[C@@H](Cc2ccc(O)cc2)C(=O)N[C@@H](CN)C(=O)N[C@H](C(=O)NCC(N)=O)CSCC(=O)N[C@@H](Cc2cc(F)c(F)c(F)c2)C(=O)N(C)[C@@H](Cc2ccccc2)C(=O)N1C [Example 9365] ({CH2CO}-[Phe(3,4,5-F3)][NMeF][NMeNle][d(cisHyp)]DV[NMeF]N[d(cisHyp)]WY[Dap]CG-NH2; thioether N-13) |  | 10 to 99.9 nM |
| CCCC[C@H]1C(=O)N2C[C@H](O)C[C@@H]2C(=O)N[C@@H](CC(=O)O)C(=O)N[C@@H](C(C)C)C(=O)N(C)[C@@H](Cc2ccccc2)C(=O)N[C@@H](CC(N)=O)C(=O)N2C[C@H](O)C[C@@H]2C(=O)N[C@@H](Cc2c[nH]c3ccccc23)C(=O)N[C@@H](Cc2ccc(O)cc2)C(=O)N[C@@H](CCCN)C(=O)N[C@H](C(=O)NCC(N)=O)CSCC(=O)N[C@@H](Cc2cc(F)c(F)c(F)c2)C(=O)N(C)[C@@H](Cc2ccccc2)C(=O)N1C [Example 9363] ({CH2CO}-[Phe(3,4,5-F3)][NMeF][NMeNle][d(cisHyp)]DV[NMeF]N[d(cisHyp)]WY[Orn]CG-NH2; thioether N-13) |  | 1 to 9.9 nM |
| CCCC[C@H]1C(=O)N2CCC[C@@H]2C(=O)N[C@@H](CC(=O)O)C(=O)N[C@@H](C(C)C)C(=O)N(C)[C@@H](C(C)C)C(=O)N[C@@H](Cc2ccc(O)cc2)C(=O)N2CCC[C@@H]2C(=O)N[C@@H](Cc2c[nH]c3ccccc23)C(=O)N[C@@H](Cc2ccc(O)cc2)C(=O)N[C@@H](CCCN)C(=O)N[C@H](C(=O)NCC(N)=O)CSCC(=O)N[C@@H](Cc2ccc(F)cc2)C(=O)N(C)[C@@H](Cc2ccccc2)C(=O)N1C [Example 9243] ({CH2CO}-[Phe(4-F)][NMeF][NMeNle][dP]DV[NMeV]Y[dP]WY[Orn]CG-NH2; thioether N-13) |  | 1000 to 10000 nM |
| CCCC[C@H]1C(=O)N(C)[C@@H](CCCC)C(=O)N[C@@H](C)C(=O)N[C@H](C(=O)NCC(N)=O)CSCC(=O)N[C@@H](Cc2ccc(O)cc2)C(=O)N(C)[C@@H](C)C(=O)N[C@@H](CC(N)=O)C(=O)N2CCC[C@H]2C(=O)N[C@@H](Cc2cnc[nH]2)C(=O)N[C@@H](CCC(N)=O)C(=O)N2C[C@H](O)C[C@H]2C(=O)N[C@@H](Cc2c[nH]c3ccccc23)C(=O)N[C@@H](CO)C(=O)N[C@@H](Cc2csc3ccccc23)C(=O)N1C [Example 1542] ({CH2CO}-Y[NMeA]NPHQ[Hyp]WS[Bta][NMeNle][NMeNle]ACG-NH2; thioether N-14) |  | 10 to 99.9 nM |
| CCCC[C@H]1C(=O)N2C[C@H](O)C[C@@H]2C(=O)N[C@@H](CC(=O)O)C(=O)N[C@@H](C(C)C)C(=O)N(C)[C@@H](Cc2ccccc2)C(=O)N[C@@H](Cc2ccc(O)cc2)C(=O)N2C[C@@H](O)C[C@@H]2C(=O)N[C@@H](Cc2c[nH]c3ccccc23)C(=O)N[C@@H](Cc2ccc(O)cc2)C(=O)N[C@@H](CC(C)C)C(=O)N[C@H](C(=O)NCC(N)=O)CSCC(=O)N[C@@H](Cc2cc(F)c(F)c(F)c2)C(=O)N(C)[C@@H](Cc2ccccc2)C(=O)N1C [Example 9371] ({CH2CO}-[Phe(3,4,5-F3)][NMeF][NMeNle][d(cisHyp)]DV[NMeF]Y[dHyp]WYLCG-NH2; thioether N-13) |  | 1 to 9.9 nM |
| CCCC[C@H]1C(=O)N[C@@H](CC(N)=O)C(=O)N2CCC[C@H]2C(=O)N[C@@H](CO)C(=O)N[C@@H](CCO)C(=O)N2CCC[C@H]2C(=O)N[C@@H](Cc2c[nH]c3ccccc23)C(=O)N[C@@H](CCCN)C(=O)N[C@@H](Cc2c[nH]c3ccccc23)C(=O)N(C)[C@@H](C)C(=O)N(C)CC(=O)N[C@@H](CCCNC(=N)N)C(=O)NC(C(=O)NCC(N)=O)CSCC(=O)N[C@@H](Cc2ccc(O)cc2)C(=O)N1C (some centres unmarked) [Example 10204] ({CH2CO}-Y[NMeNle]NPS[hSer]PW[Orn]W[NMeA][Sar]R[ξC]G-NH2; thioether N-14) |  | 1000 to 10000 nM |
| CCCC[C@H]1C(=O)N(C)[C@@H](CCCC)C(=O)N[C@@H](CCC(=O)O)C(=O)N[C@H](C(=O)NCC(N)=O)CSCC(=O)N[C@@H](Cc2ccc(O)cc2)C(=O)N(C)[C@@H](C)C(=O)N[C@@H](CC(N)=O)C(=O)N2CCC[C@H]2C(=O)N[C@@H](Cc2c[nH]cn2)C(=O)N[C@@H](CCC(=O)O)C(=O)N2C[C@H](O)C[C@H]2C(=O)N[C@@H](Cc2c[nH]c3ccccc23)C(=O)N[C@@H](CO)C(=O)N[C@@H](Cc2c[nH]c3ccccc23)C(=O)N1C [Example 5150] ({CH2CO}-Y[NMeA]NPHE[Hyp]WSW[NMeNle][NMeNle]ECG-NH2; thioether N-14) |  | 1 to 9.9 nM |
